Assay results reported in patent US20230338463A1, “ICD PEPTIDE AND USE THEREOF FOR HAVING CYTOTOXIC ACTIVITY ON CANCER CELLS” (NATIONAL TSING HUA UNIVERSITY, priority 2022, published 2023).
Non-standard residues stand in square brackets, D forms with d. Residues, ends and D or L forms follow the SMILES beside them. Bip = N[C@@H](Cc1ccc(-c2ccccc2)cc1)C(=O)O; Dip = N[C@H](C(=O)O)C(c1ccccc1)c1ccccc1

Experiments:
[1] = tested on: MN-11 cell line; format: cell-based, murine; details: 2 h
Procedure: Besides, evaluation of the killing kinetics of Nal-P-113, Bip-P-113 and Dip-P-113 for MN-11 was determined by MTT assay. Two-fold half 1inhibitory concentration (2 × IC50) was chosen for the experiments and the results were recorded at selected time points (30 mins, 1 hour, 2 hours and 4 hours). […] In 2 hours, the cell survival rate was near 50%.

[2] = tested on: MN-11 cells (murine fibrosarcoma); format: cell-based
Description: Medium with PBS solution was used as control group.
Besides, MTT assay was used to test the cell viability of the murine fibrosarcoma MN-11 cell line. Among the peptides, Dip-P-113 had the lowest cytotoxicity against MN-11 cells (FIG. 1F).

[3] = tested on: PC9 cells (non-small cell lung cancer with EGFR mutation); details: human, 24 h
Description: (§1) Three non-small cell lung cancer cell lines (H1975, A549, PC9) and two oral cancer cell lines (CGNHC9, OECM-1) were used in the present invention. H1975 is the non-small cell lung carcinoma tissue, A549 is the adenocarcinomic alveolar basal epithelial cells and PC9 is the non-small cell lung cancer with EGFR mutation. CGNHC9 and OECM-1 cell lines refer to oral squamous cell carcinoma and gingival epidermoid carcinoma respectively. The abovemetioned cell lines were derived from human origin and being cultured in the humidified incubator containing 5% CO2 at 37° C. CGNHC9 cell line was cultured in Dulbecco’s modified Eagle’s medium (GIBCO Life Technologies Corporation, NY, USA) with 10% fetal bovine serum (FBS), 2 mM L-glutamine and 1% penicillin/ streptomycin and Roswell Park Memorial Institute 1640 (RPMI 1640, GIBCO Life Technologies Corporation, NY, USA) medium with 10% fetal bovine serum (FBS), 2 mM L-glutamine and 1% penicillin/ streptomycin was used as the culture medium for the rest of the cell lines.
(§2) The anticancer activity of ICD peptides include, not limited, SEQ ID NO: 1 and its derivative peptides (SEQ ID NO: 2, SEQ ID NO: 3, SEQ ID NO: 4, and SEQ ID NO: 5) was using the 3-(4,5-Dimethyl-2-thiazolyl)-2,5-diphenyl-2H-tetrazolium bromide (MTT, Sigma Aldrich, St. Louis, MO, USA) colorimetric assay for cell viability test. The cells include, not limited, H1975, A549, PC9, CGNHC9, OECM-1, MN-11 and HFW cells/cell lines.
(§3) The cells were seeded in the 96-well plate at 5000 cells/well under the environment of humidified 5% CO2 and the temperature of 37° C. for 24 hours. The medium was removed from the well before the fresh medium containing different concentrations of ICD peptides was added and incubated for 24 hours. Medium with PBS solution was used as control group. All ICD peptides were diluted serially from 100 µM to 0.78 µM in ddH2O before adding in the medium. After 24 hours of ICD peptide treatment, fresh medium with 10% MTT solution (5 mg/mL) was incubated for additional 4 hours in advance of dissolving the formazan crystal in 100 µL DMSO (Dimethyl sulfoxide, Sigma Aldrich) solution. The calculation of cell survival rate was completed by measuring the absorbance at 570 nm using microplate reader (TECAN Sunrise ELISA Reader).
(§4) The cell survival was calculated from the treated cells relative to the control (100% viable cells) using the mean of three independent experiments and expressed as a 50% inhibitory concentration (IC50).
(§5) The percentage of cell viability was calculated using the following formula: […]
(§6) The half inhibition concentration (IC50) is the concentration required by the drug to reach fifty percent inhibition. In one embodiment, the SEQ ID NO: 1 and its derivative peptides (SEQ ID NO:2, SEQ ID NO:3, SEQ ID NO:4, SEQ ID NO: 5) was used for IC50 test via MTT colorimetric assay.

[4] = tested on: OECM-1 cells (gingival epidermoid carcinoma); details: for cell viability percentage: human, 24 h
Description: as §1, §2, §3, §4, §5, §6

[5] = tested on: CGNHC9 cells (oral squamous cell carcinoma); details: for cell viability percentage: human, 24 h
Description: as §1, §2, §3, §4, §5, §6

[6] = tested on: H1975 cells (non-small cell lung cancer); details: 24 h
Description: as §1, §2, §3, §4, §5, §6

[7] = tested on: A549 cells (adenocarcinomic alveolar basal epithelial cells); details: A549, MTT, 24 hours
Description: as §1, §2, §3, §4, §5, §6

Row | Molecule | cell survival rate [1] [%] | IC50 [2] [µM] | cell viability percentage [3] | cell viability percentage [4] | cell viability percentage [5] | IC50 [6] [µM] | IC50 [7] [µM] | IC50 ([4]; OECM-1, MTT, 24 hours) [µM] | IC50 ([5]; CGNHC9, MTT, 24 hours) [µM]
1 | CC(=O)N[C@@H](C)C(=O)N[C@@H](CCCCN)C(=O)N[C@@H](CCCNC(=N)N)C(=O)N[C@@H](Cc1ccc(-c2ccccc2)cc1)C(=O)N[C@@H](Cc1ccc(-c2ccccc2)cc1)C(=O)NCC(=O)N[C@@H](Cc1ccc(O)cc1)C(=O)N[C@@H](CCCCN)C(=O)N[C@@H](CCCNC(=N)N)C(=O)N[C@@H](CCCCN)C(=O)N[C@@H](Cc1ccccc1)C(=O)N[C@@H](Cc1ccc(-c2ccccc2)cc1)C(N)=O [SEQ ID NO:4, Ac-AKR Bip Bip GYKRKF Bip-NH2] (Ac-AKR[Bip][Bip]GYKRKF[Bip]-NH2) | ~50 | 12.1 ± 0.47 | lower than 20% | lower than 20% | lower than 20% |  |  |  | 
2 | CC(=O)N[C@@H](C)C(=O)N[C@@H](CCCCN)C(=O)N[C@@H](CCCNC(=N)N)C(=O)N[C@H](C(=O)N[C@H](C(=O)NCC(=O)N[C@@H](Cc1ccc(O)cc1)C(=O)N[C@@H](CCCCN)C(=O)N[C@@H](CCCNC(=N)N)C(=O)N[C@@H](CCCCN)C(=O)N[C@@H](Cc1ccccc1)C(=O)N[C@H](C(N)=O)C(c1ccccc1)c1ccccc1)C(c1ccccc1)c1ccccc1)C(c1ccccc1)c1ccccc1 [SEQ ID NO: 5, Ac-AKR Dip Dip GYKRKFDip-NH2] (Ac-AKR[Dip][Dip]GYKRKF[Dip]-NH2) | ~50 | 59.8 ± 6.13 | lower than 20% | lower than 20% | lower than 20% | 100 |  |  | 
3 | Ac-AKRFFGYKRKFF-NH2 [SEQ ID NO:2, Ac-AKR Phe Phe GYKRKF Phe-NH2] |  |  |  |  |  | 107 |  |  | 
4 | Ac-AKRHHGYKRKFH-NH2 [SEQ ID NO: 1, Ac-AKR His His GYKRKF His-NH2] |  |  |  |  |  | 110 | 107 | 141 | 84.3
